In patent publication US8101596B2, “Loxapine analogs and methods of use thereof” (Hypnion Inc., priority 2004, dated 2012):

Columns and labels:
male Wistar rats = assay: Sleep-wakefulness monitoring (SCORE-2000) in rats; format: in vivo, rat; conditions: CT-18
Method: Food and water were available ad libitum.
Treatments were administered orally as a bolus.
A parallel group study design was employed.

[1] = tested on: human cryopreserved hepatocytes; assay: Metabolism in human cryopreserved hepatocytes; format: in vitro ADME; conditions: 1 μM, in % (unit assumed)
Method: (§1) Metabolism of test articles in monkey and human cryopreserved hepatocytes was assayed as follows:
(§2) Sample is diluted with DMSO, to prepare 100 μM and 10 μM stocks. 0.1% formic acid in acetonitrile is prepared by the addition of 1 mL formic acid per 1 L acetonitrile (store RT for 3 months). 10 minute, 60 and 120 minute 96 well quenching plates are prepared with 150 μL acetonitrile+0.1% formic acid in each well. Store on ice or refrigerated.
(§3) Next, hepatocytes are thawed and 100 μL of cell suspension is placed into a microfuge tube with 100 μL 0.4% Trypan Blue solution and gently mix by inversion. A small amount of the stained cell suspension (approximately 15 μL) is placed into a clean hemacytometer with a coverslip. The hemacytometer is placed onto the stage of the microscope and the focus and power are adjusted until a single counting square fills the field. The number of cells in the four outside corner subdivided squares of the hemacytometer are counted. Viable cells are opalescent, round, and pale with a darker outline. Non-viable cells are dark, opaque blue.
(§4) 198 μL of hepatocytes are transferred to relevant wells on dosing plate.
(§5) Plates are preincubated for at least 15 min. Reactions are started 2 μL of appropriate test compound dilution from dosing plate. […]

[2] = tested on: monkey cryopreserved hepatocytes; assay: Metabolism in monkey cryopreserved hepatocytes; format: in vitro ADME; conditions: primate hepatocytes, 1 μM, in % (unit assumed)
Method: as §1, §2, §3, §4, §5

[3] = molecular target: T1, human recombinant M1 expressed in CHO cells (Homo sapiens, UniProt P11229); assay: M1 muscarinic receptor binding assay
T1 construct: purchased PerkinElmer, Inc., Wellesley, Mass; host or cells: CHO cells
T1 sequence (P11229 1-460): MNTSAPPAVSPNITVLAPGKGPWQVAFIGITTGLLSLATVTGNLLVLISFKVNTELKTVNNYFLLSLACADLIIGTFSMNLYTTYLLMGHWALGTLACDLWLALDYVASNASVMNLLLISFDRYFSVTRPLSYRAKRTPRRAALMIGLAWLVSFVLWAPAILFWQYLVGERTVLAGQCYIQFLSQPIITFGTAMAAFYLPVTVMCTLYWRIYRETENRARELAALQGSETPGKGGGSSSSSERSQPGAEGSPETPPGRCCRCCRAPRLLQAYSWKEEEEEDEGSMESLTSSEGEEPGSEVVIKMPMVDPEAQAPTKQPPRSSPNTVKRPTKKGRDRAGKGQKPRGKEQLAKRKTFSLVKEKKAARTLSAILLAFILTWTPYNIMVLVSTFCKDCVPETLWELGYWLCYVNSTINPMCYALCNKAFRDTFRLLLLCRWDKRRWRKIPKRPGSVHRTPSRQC

[4] = molecular target: T2, human recombinant M2 expressed in CHO cells (Homo sapiens, UniProt P08172); assay: M2 muscarinic receptor binding assay
T2 construct: purchased PerkinElmer, Inc., Wellesley, Mass; host or cells: CHO cells
T2 sequence (P08172 1-466): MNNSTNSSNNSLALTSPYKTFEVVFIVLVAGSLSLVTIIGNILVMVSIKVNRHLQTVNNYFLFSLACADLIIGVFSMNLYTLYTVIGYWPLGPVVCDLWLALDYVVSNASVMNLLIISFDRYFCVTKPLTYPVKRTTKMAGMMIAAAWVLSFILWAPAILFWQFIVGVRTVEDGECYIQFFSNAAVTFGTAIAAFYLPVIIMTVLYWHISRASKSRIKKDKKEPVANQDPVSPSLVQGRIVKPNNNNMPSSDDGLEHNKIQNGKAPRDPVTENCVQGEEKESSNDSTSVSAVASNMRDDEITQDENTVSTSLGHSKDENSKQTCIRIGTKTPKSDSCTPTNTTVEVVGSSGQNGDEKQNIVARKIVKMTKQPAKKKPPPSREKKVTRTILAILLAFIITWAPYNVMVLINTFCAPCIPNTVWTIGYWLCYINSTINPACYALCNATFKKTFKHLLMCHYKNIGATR

[5] = molecular target: T3, human recombinant M3 expressed in CHO cells (Homo sapiens, UniProt P20309); assay: M3 muscarinic receptor binding assay
T3 construct: purchased PerkinElmer, Inc., Wellesley, Mass; host or cells: CHO cells

H1 histamine receptor = molecular target: T4, H1 histamine receptor (Bos taurus, UniProt P30546); conditions: reference compounds; read-out: Ki of reference compounds in H1 binding assay (unit inferred); cited from earlier work
T4 construct: the receptors were obtained from bovine cerebellar membrane tissue; from tissue; host or cells: bovine cerebellar membranes
T4 sequence (P30546 whole entry): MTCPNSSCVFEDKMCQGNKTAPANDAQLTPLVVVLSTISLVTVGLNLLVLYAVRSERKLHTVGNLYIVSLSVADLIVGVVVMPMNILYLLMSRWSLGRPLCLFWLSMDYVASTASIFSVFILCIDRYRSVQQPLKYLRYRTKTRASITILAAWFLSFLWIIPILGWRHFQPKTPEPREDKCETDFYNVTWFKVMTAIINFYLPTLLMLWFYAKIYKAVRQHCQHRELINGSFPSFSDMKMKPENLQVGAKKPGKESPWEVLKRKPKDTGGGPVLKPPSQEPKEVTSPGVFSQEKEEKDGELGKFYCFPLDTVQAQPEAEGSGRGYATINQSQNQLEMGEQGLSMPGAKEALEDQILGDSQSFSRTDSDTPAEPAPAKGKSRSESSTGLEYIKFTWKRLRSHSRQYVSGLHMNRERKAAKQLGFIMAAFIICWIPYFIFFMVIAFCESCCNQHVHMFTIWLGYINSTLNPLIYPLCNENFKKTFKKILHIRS

T3 sequence (P20309 whole entry): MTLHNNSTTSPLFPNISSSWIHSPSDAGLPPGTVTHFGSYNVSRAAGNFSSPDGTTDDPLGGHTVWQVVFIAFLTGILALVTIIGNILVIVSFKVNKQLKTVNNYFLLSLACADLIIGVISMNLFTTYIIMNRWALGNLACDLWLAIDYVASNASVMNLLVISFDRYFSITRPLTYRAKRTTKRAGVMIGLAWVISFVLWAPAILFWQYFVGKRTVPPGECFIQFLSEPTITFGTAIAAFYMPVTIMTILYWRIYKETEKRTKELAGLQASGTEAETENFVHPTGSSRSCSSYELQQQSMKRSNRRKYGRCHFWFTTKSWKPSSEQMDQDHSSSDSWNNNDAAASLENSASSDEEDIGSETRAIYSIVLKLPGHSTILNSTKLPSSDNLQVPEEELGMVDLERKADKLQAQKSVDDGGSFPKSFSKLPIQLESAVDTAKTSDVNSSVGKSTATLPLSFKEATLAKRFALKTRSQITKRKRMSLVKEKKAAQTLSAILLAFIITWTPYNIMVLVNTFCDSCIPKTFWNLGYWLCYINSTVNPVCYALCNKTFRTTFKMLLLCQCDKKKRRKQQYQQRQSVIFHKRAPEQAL

## CC(C)(CN1CCN(C2=Nc3ccccc3Oc3ccccc32)CC1)C(=O)O [Compound 1]
Male Wistar rats; 1 mg/kg oral
  LUSB (longest uninterrupted sleep bout): 6.0 ± 2.3 min
Male Wistar rats; 3 mg/kg oral
  LUSB (longest uninterrupted sleep bout): 18.8 ± 3.0 min
Male Wistar rats; 10 mg/kg oral
  LUSB (longest uninterrupted sleep bout): 19.7 ± 6.7 min

## CC(C)(CN1CCN(C2=Nc3ccccc3Oc3ccc(Cl)cc32)CC1)C(=O)O [Compound 5]
[1]
  remaining 120 minutes after treatment: 90.405
[2]
  remaining 120 minutes after treatment: 75.105
Male Wistar rats; 3 mg/kg oral
  LUSB (longest uninterrupted sleep bout): 13.5 ± 4.0 min
Male Wistar rats; 10 mg/kg oral
  LUSB (longest uninterrupted sleep bout): 8.7 ± 3.3 min

## CC(C)(CCN1CCN(C2=Nc3ccccc3Oc3ccc(Cl)cc32)CC1)C(=O)O [Compound 6]
[3]
  Ki: > 10 µM
[4]
  Ki: > 10 µM
[5]
  Ki: > 10 µM

## CC(C)(CN1CCN(C2=Nc3ccccc3Oc3ccc(Br)cc32)CC1)C(=O)O [Compound 8]
Male Wistar rats; 10 mg/kg oral
  LUSB (longest uninterrupted sleep bout): 16.7 ± 3.0 min

## COc1ccc2c(c1)C(N1CCN(CC(C)(C)C(=O)O)CC1)=Nc1ccccc1O2 [Compound 12]
Male Wistar rats; 1 mg/kg oral
  LUSB (longest uninterrupted sleep bout): 7.7 ± 3.2 min
Male Wistar rats; 3 mg/kg oral
  LUSB (longest uninterrupted sleep bout): 8.3 ± 3.0 min
Male Wistar rats; 10 mg/kg oral
  LUSB (longest uninterrupted sleep bout): 18.1 ± 2.1 min

## CC(C)(CN1CCN(C2=Nc3cc(Br)ccc3Oc3ccccc32)CC1)C(=O)O [Compound 17]
Male Wistar rats; 10 mg/kg oral
  LUSB (longest uninterrupted sleep bout): 5.0 ± 2.0 min

## Cc1ccc2c(c1)N=C(N1CCN(CC(C)(C)C(=O)O)CC1)c1ccccc1O2 [Compound 19]
Male Wistar rats; 3 mg/kg oral
  LUSB (longest uninterrupted sleep bout): 18.6 ± 3.3 min
Male Wistar rats; 10 mg/kg oral
  LUSB (longest uninterrupted sleep bout): 11.7 ± 4.0 min

## Cc1ccc2c(c1)N=C(N1CCN(CC(C)(C)C(=O)O)CC1)c1cc(C)ccc1O2 [Compound 20]
Male Wistar rats; 10 mg/kg oral
  LUSB (longest uninterrupted sleep bout): 4.7 ± 2.3 min

## CC(C)(CN1CCN(C2=Nc3ccccc3Oc3ccccc32)CC1)C(=O)NS(C)(=O)=O [Compound 40]
Male Wistar rats; 10 mg/kg oral
  LUSB (longest uninterrupted sleep bout): 7.6 ± 4.2 min
Male Wistar rats; 30 mg/kg oral
  LUSB (longest uninterrupted sleep bout): 16.4 ± 2.9 min

## COc1ccc2c(c1)N=C(N1CCN(CC(C)(C)C(=O)O)CC1)c1ccc(OC)cc1O2 [Compound 42]
Male Wistar rats; 10 mg/kg oral
  LUSB (longest uninterrupted sleep bout): 4.8 ± 2.7 min

## Cc1ccc2c(c1)Oc1ccccc1N=C2N1CCN(CC(C)(C)C(=O)O)CC1 [Compound 46]
Male Wistar rats; 1 mg/kg oral
  LUSB (longest uninterrupted sleep bout): 4.1 ± 1.6 min
Male Wistar rats; 3 mg/kg oral
  LUSB (longest uninterrupted sleep bout): 17 ± 4.4 min
Male Wistar rats; 10 mg/kg oral
  LUSB (longest uninterrupted sleep bout): 11.1 ± 3.7 min

## Cc1ccc2c(c1)C(N1CCN(CC(C)(C)C(=O)O)CC1)=Nc1cc(Br)ccc1O2 [Compound 50]
Male Wistar rats; 10 mg/kg oral
  LUSB (longest uninterrupted sleep bout): 3.4 ± 2.6 min

## COc1ccc2c(c1)C(N1CCN(CC(C)(C)C(=O)O)CC1)=Nc1cc(Br)ccc1O2 [Compound 51]
Male Wistar rats; 10 mg/kg oral
  LUSB (longest uninterrupted sleep bout): 10.1 ± 3.6 min

## Cc1ccc2c(c1)N=C(N1CCN(CC(C)(C)C(=O)O)CC1)c1ccc(C)cc1O2 [Compound 52]
Male Wistar rats; 10 mg/kg oral
  LUSB (longest uninterrupted sleep bout): 15.9 ± 2.3 min

## COc1ccc2c(c1)C(N1CCN(CC(C)(C)C(=O)O)CC1)=Nc1cc(C)ccc1O2 [Compound 54]
Male Wistar rats; 10 mg/kg oral
  LUSB (longest uninterrupted sleep bout): 11.1 ± 2.9 min

## COc1ccc2c(c1)N=C(N1CCN(CC(C)(C)C(=O)O)CC1)c1cc(C)ccc1O2 [Compound 56]
Male Wistar rats; 10 mg/kg oral
  LUSB (longest uninterrupted sleep bout): 11.7 ± 2.3 min

## CN(C)CCCSC(=N)N [dimaprit]
H1 histamine receptor
  Ki: > 110 µM
